Reference: patent publication US20250066778A1, “METHODS AND MATERIALS FOR TREATING HEART ATTACK” (THE JOHNS HOPKINS UNIVERSITY, priority 2022, published 2025)

Experiments:
[1] = test system: Per1/Per2 DKO neonatal mouse cardiomyocytes; test: Gene expression (qPCR) in cultured cardiomyocytes from Per1/Per2 DKO neonatal mouse hearts after treatment; type: cell-based; details: for expression of cell cycle / mitosis regulating genes: norepinephrine 1 μM (FIG. 4C); for Wee1 gene expression: norepinephrine 1 μM (FIG. 5E)
Description: Sm22a-Cre (017491) and C57BL/6 mice were obtained from Jackson Lab. NGF +/− mice, Per1/Per2 DKO mice, and Mesp1-Cre mice were as described elsewhere (see, e.g., Wheeler et al., Neuron, 82: 587-602 (2014); Muller et al., J. Neurosci., 32: 14885-14898 (2012); and Saga et al., Development, 126: 3437-3447 (1999)). The animals were randomly allocated to experimental groups and both male and female mice were equally used in all experimental assays. All mouse hearts and cardiomyocytes were harvested at random times during the day unless specified otherwise. Cardiomyocytes were isolated from P0 or P1 mouse hearts using a neonatal cardiomyocyte isolation kit (Miltenyi Biotec) based on manufacturer's instructions. Before plating, cardiomyocytes were filtered through a 70 μm mesh and single cells were cultured in 24-well plates coated with gelatin. The cells were first maintained in 5% fetal bovine serum (FBS) in DMEM with Pen/Strep antibiotics for 24 hours and subsequently treated for at least 2 hours with 50% horse serum in DMEM and then for 2 days with 5% FBS in DMEM. Cardiomyocytes were treated with Norepinephrine (1 μM) (Sigma) or Nerve Growth Factor (NGF, 20 ng/ml) (PeproTech) as indicated. RNA was isolated from mouse hearts and cultured cardiomyocytes using Trizol, and cDNA was generated using the high-capacity cDNA reverse transcription kit (Applied Biosystems). qPCR reactions were performed using the Sybr Select qPCR mix (Thermo Fisher) with indicated primers. Gene expression levels were normalized to Gapdh or Rpl32.

[2] = test system: wild type neonatal mouse cardiomyocytes (NMCMs); test: Gene expression (qPCR) in cultured wild type neonatal mouse cardiomyocytes after treatment; type: cell-based; details: for expression of mitosis regulating genes / Wee1 gene expression / expression of clock (circadian) genes: wild type NMCMs; for expression of mitosis regulating genes: norepinephrine 1 μM (FIG. 4C); for Wee1 gene expression: norepinephrine 1 μM (FIG. 5E); for expression of clock (circadian) genes: reset with 50% serum, norepinephrine 1 μM, after 48 hrs of treatment (FIG. 4B)
Experimental: Cardiomyocytes were isolated from P0 or P1 mouse hearts using a neonatal cardiomyocyte isolation kit (Miltenyi Biotec) based on manufacturer's instructions. Before plating, cardiomyocytes were filtered through a 70 μm mesh and single cells were cultured in 24-well plates coated with gelatin. The cells were first maintained in 5% fetal bovine serum (FBS) in DMEM with Pen/Strep antibiotics for 24 hours and subsequently treated for at least 2 hours with 50% horse serum in DMEM and then for 2 days with 5% FBS in DMEM. Cardiomyocytes were treated with Norepinephrine (1 μM) (Sigma) or Nerve Growth Factor (NGF, 20 ng/ml) (PeproTech) as indicated.
RNA was isolated from mouse hearts and cultured cardiomyocytes using Trizol, and cDNA was generated using the high-capacity cDNA reverse transcription kit (Applied Biosystems). qPCR reactions were performed using the Sybr Select qPCR mix (Thermo Fisher) with indicated primers. Gene expression levels were normalized to Gapdh or Rpl32.

Row | Compound | expression of cell cycle / mitosis regulating genes [1] | expression of cell cycle / mitosis regulating genes ([1]; listed as norepinephrine) | Wee1 gene expression [1] | Wee1 gene expression ([1]; listed as norepinephrine) | expression of mitosis regulating genes [2] | expression of mitosis regulating genes ([2]; listed as norepinephrine) | Wee1 gene expression [2] | Wee1 gene expression ([2]; listed as norepinephrine) | expression of clock (circadian) genes [2] | expression of clock (circadian) genes ([2]; listed as norepinephrine) | cell cycle gene expression ([2]; ex vivo treatment of NMCMs with NGF 20 ng/ml (FIG. 9E))
1 | NC[C@H](O)c1ccc(O)c(O)c1 [Norepinephrine] | failed to suppress mitosis regulating genes apart from Aurkb | no significant effect on cell cycle genes apart from Aurkb | this effect was not observed in Per1/Per2 DKO cardiomyocytes | this effect was not observed in the absence of Per1/Per2 | decreased the expression of mitosis regulating genes | suppressed mitosis genes | induced Wee1 gene expression | induces Wee1 expression | induces the expression of circadian genes | induced Per1 and Per2 as well as Cryptochrome1 (Cry1) and Cry2 genes | –
2 | NGF: Nerve Growth Factor (PeproTech), used at 20 ng/ml on neonatal mouse cardiomyocytes | – | – | – | – | – | – | – | – | – | – | did not affect cell cycle gene expression
